Test results reported in PubChem BioAssay AID330 (DTP/NCI, 2004).
Several values for one entry are separate records, joined by “and”; a condition that tells them apart may be missing. Equal values may be shown once. Toxic doses and inconclusive results are not listed.

System: P388 leukemia ip, CD2F1 mice, survival T/C
Assay: NCI In Vivo Anticancer Drug Screen. Data for tumor model P388 Leukemia (intraperitoneal) in CD2F1 (CDF1) mice
Conditions: endpoint: median survival time, higher = longer survival
Procedure, shortened: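 Mice carrying the transplanted tumor received test compound or vehicle. Survival was recorded in each group, and the value is the treated-group measurement divided by that of the vehicle-treated control group.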

[1] = dose: 50.0 mg/kg/injection, schedule: Q01DX009 (ip), vehicle: Klucel (hydroxypropylcellulose) (HPC)
[2] = dose: 100.0 mg/kg/injection, schedule: Q01DX009 (ip), vehicle: Klucel (hydroxypropylcellulose) (HPC)
[3] = dose: 50.0 mg/kg/injection, schedule: Q01DX005 (ip), vehicle: Klucel (hydroxypropylcellulose) (HPC)
[4] = dose: 100.0 mg/kg/injection, schedule: Q01DX005 (ip), vehicle: Klucel (hydroxypropylcellulose) (HPC)
[5] = dose: 200.0 mg/kg/injection, schedule: Q01DX005 (ip), vehicle: Klucel (hydroxypropylcellulose) (HPC)
[6] = dose: 50.0 mg/kg/injection, schedule: Q01DX009 (ip), vehicle: saline with Tween-80
[7] = dose: 100.0 mg/kg/injection, schedule: Q01DX009 (ip), vehicle: saline with Tween-80
[8] = dose: 200.0 mg/kg/injection, schedule: Q01DX009 (ip), vehicle: saline with Tween-80
[9] = dose: 60.0 mg/kg/injection, schedule: Q01DX005 (ip), vehicle: saline with Tween-80
[10] = dose: 120.0 mg/kg/injection, schedule: Q01DX005 (ip), vehicle: saline with Tween-80
[11] = dose: 240.0 mg/kg/injection, schedule: Q01DX005 (ip), vehicle: saline with Tween-80
[12] = dose: 50.0 mg/kg/injection, schedule: Q01DX009 (ip), vehicle: saline
[13] = dose: 100.0 mg/kg/injection, schedule: Q01DX009 (ip), vehicle: saline
[14] = dose: 25.0 mg/kg/injection, schedule: Q01DX005 (ip), vehicle: saline with Tween-80
[15] = dose: 50.0 mg/kg/injection, schedule: Q01DX005 (ip), vehicle: saline with Tween-80
[16] = dose: 200.0 mg/kg/injection, schedule: Q01DX009 (ip), vehicle: Klucel (hydroxypropylcellulose) (HPC)
[17] = dose: 100.0 mg/kg/injection, schedule: Q01DX005 (ip), vehicle: saline with Tween-80

SMILES: CCn1c(=O)c2[nH]c(I)nc2n(CC)c1=O
- T/C (dose: 25.0 mg/kg/injection, schedule: Q01DX009 (ip), vehicle: Klucel (hydroxypropylcellulose) (HPC)): 99 % of control
- T/C [1]: 99 % of control
- T/C [2]: 106 % of control

SMILES: CC(=O)Oc1nnc(OC(C)=O)n1-c1ccccc1
- T/C [3]: 114 % of control
- T/C [4]: 111 % of control
- T/C [5]: 115 % of control

SMILES: Clc1ccc(C#Cc2ccc(Cl)cc2)cc1
- T/C (dose: 3.13 mg/kg/injection, schedule: Q01DX009 (ip), vehicle: saline with Tween-80): 109 % of control
- T/C (dose: 6.25 mg/kg/injection, schedule: Q01DX009 (ip), vehicle: saline with Tween-80): 113 % of control

SMILES: O=C(Nc1nccs1)Nc1ccc(Br)cc1C(F)(F)F
- T/C [6]: 110 % of control
- T/C [7]: 113 % of control
- T/C [8]: 113 % of control

SMILES: C(/C=C/c1cc2cc(C3=NCCN3)ccc2o1)=C\c1ccc(C2=NCCN2)cc1
- T/C (dose: 100.0 mg/kg/injection, schedule: Q04DX003 (ip), vehicle: saline): 114 % of control
- T/C (dose: 200.0 mg/kg/injection, schedule: Q04DX003 (ip), vehicle: saline): 119 % of control
- T/C (dose: 400.0 mg/kg/injection, schedule: Q04DX003 (ip), vehicle: saline): 118 % of control

SMILES: COc1ccc2c(c1)c(C(=O)O)cc(=O)n2C
- T/C [7]: 95 % of control
- T/C [8]: 90 % of control
- T/C (dose: 400.0 mg/kg/injection, schedule: Q01DX009 (ip), vehicle: saline with Tween-80): 90 % of control

SMILES: C=C(C)C1=CC(=O)C(C)(C)O1
- T/C (dose: 12.5 mg/kg/injection, schedule: Q01DX009 (ip), vehicle: saline with Tween-80): 106 % of control
- T/C (dose: 25.0 mg/kg/injection, schedule: Q01DX009 (ip), vehicle: saline with Tween-80): 105 % of control
- T/C [6]: 102 % of control

SMILES: CCCn1c2ccccc2c2ccccc21
- T/C (dose: 100.0 mg/kg/injection, schedule: Q04DX003 (ip), vehicle: Klucel (hydroxypropylcellulose) (HPC)): 104 % of control
- T/C (dose: 200.0 mg/kg/injection, schedule: Q04DX003 (ip), vehicle: Klucel (hydroxypropylcellulose) (HPC)): 104 % of control
- T/C (dose: 400.0 mg/kg/injection, schedule: Q04DX003 (ip), vehicle: Klucel (hydroxypropylcellulose) (HPC)): 100 % of control

SMILES: Cc1cc(C)cc(-n2cccc2C(=O)O)c1
- T/C [9]: 93 % of control
- T/C [10]: 99 % of control
- T/C [11]: 100 % of control

SMILES: CCOC(=O)Cc1csc2nc(-c3ccccc3)cn12
- T/C [9]: 115 % of control
- T/C [10]: 104 % of control
- T/C [11]: 106 % of control

SMILES: COc1cc(-c2[o+]c3cc(O)cc(O)c3cc2OC2OC(CO)C(O)C(O)C2O)cc(OC)c1O (stereo not drawn)
- T/C (dose: 25.0 mg/kg/injection, schedule: Q01DX009 (ip), vehicle: saline sonified): 100 % of control
- T/C (dose: 50.0 mg/kg/injection, schedule: Q01DX009 (ip), vehicle: saline sonified): 100 % of control
- T/C (dose: 100.0 mg/kg/injection, schedule: Q01DX009 (ip), vehicle: saline sonified): 100 % of control

SMILES: COc1cc(/C=C2\N=C(c3cccc(C)c3)OC2=O)ccc1O
- T/C [6]: 91 % of control
- T/C [7]: 100 % of control
- T/C [8]: 99 % of control

SMILES: CCN(CC)CCCC(C)NC(C)CCCN(CC)CC (stereo not drawn)
- T/C (dose: 3.13 mg/kg/injection, schedule: Q01DX009 (ip), vehicle: water): 112 % of control
- T/C (dose: 6.25 mg/kg/injection, schedule: Q01DX009 (ip), vehicle: water): 112 % of control
- T/C (dose: 12.5 mg/kg/injection, schedule: Q01DX009 (ip), vehicle: water): 99 % of control
- T/C (dose: 25.0 mg/kg/injection, schedule: Q01DX009 (ip), vehicle: water): 108 % of control
- T/C (dose: 50.0 mg/kg/injection, schedule: Q01DX009 (ip), vehicle: water): 104 % of control

SMILES: NC(=O)Nc1cc(NC(N)=O)cc(N(CCCl)CCCl)c1
- T/C (dose: 17.8 mg/kg/injection, schedule: Q04DX003 (ip), vehicle: water): 177 % of control
- T/C (dose: 20.0 mg/kg/injection, schedule: Q04DX003 (ip), vehicle: water): 173 % of control
- T/C (dose: 26.6 mg/kg/injection, schedule: Q04DX003 (ip), vehicle: water): 206 % of control
- T/C (dose: 40.0 mg/kg/injection, schedule: Q04DX003 (ip), vehicle: water): 194 % of control and 215 % of control

SMILES: O=C1C=CCCCC1
- T/C (dose: 12.5 mg/kg/injection, schedule: Q01DX009 (ip), vehicle: saline + Tween-80 + alcohol): 102 % of control
- T/C (dose: 25.0 mg/kg/injection, schedule: Q01DX009 (ip), vehicle: saline + Tween-80 + alcohol): 98 % of control
- T/C (dose: 44.0 mg/kg/injection, schedule: Q01DX009 (ip), vehicle: saline with Tween-80): 109 % of control
- T/C (dose: 50.0 mg/kg/injection, schedule: Q01DX009 (ip), vehicle: saline + Tween-80 + alcohol): 100 % of control
- T/C (dose: 66.0 mg/kg/injection, schedule: Q01DX009 (ip), vehicle: saline with Tween-80): 109 % of control

SMILES: CN1CC[C@]23c4c5ccc(O)c4O[C@H]2C(=O)CC[C@@]3(O)[C@H]1C5
- T/C [12]: 94 % of control
- T/C [13]: 109 % of control
- T/C (dose: 200.0 mg/kg/injection, schedule: Q01DX009 (ip), vehicle: saline): 102 % of control

SMILES: CCOC(=O)c1cc(-c2ccccc2)c(=O)c(OC)nc1-c1ccccc1
- T/C [14]: 108 % of control
- T/C [15]: 118 % of control

SMILES: CC(=O)C1C(=O)C(=O)N(c2ccc(Cl)cc2)C1=O (stereo not drawn)
- T/C [1]: 101 % of control
- T/C [2]: 96 % of control
- T/C [16]: 104 % of control

SMILES: CCN(CC)C(=O)C1CCN(Cc2c[nH]c3ccccc23)CC1
- T/C (dose: 25.0 mg/kg/injection, schedule: Q01DX009 (ip), vehicle: saline): 99 % of control
- T/C [12]: 104 % of control
- T/C [13]: 107 % of control

SMILES: Cc1cc(CO)cc(CO)c1
- T/C (dose: 100.0 mg/kg/injection, schedule: Q01DX001 (ip), vehicle: saline with Tween-80): 104 % of control
- T/C (dose: 200.0 mg/kg/injection, schedule: Q01DX001 (ip), vehicle: saline with Tween-80): 101 % of control
- T/C (dose: 400.0 mg/kg/injection, schedule: Q01DX001 (ip), vehicle: saline with Tween-80): 100 % of control

SMILES: O=C1c2ccccc2C(=O)N1N1C(=O)c2ccccc2C1=O
- T/C (dose: 100.0 mg/kg/injection, schedule: Q04DX003 (ip), vehicle: saline with Tween-80): 100 % of control
- T/C (dose: 200.0 mg/kg/injection, schedule: Q04DX003 (ip), vehicle: saline with Tween-80): 100 % of control
- T/C (dose: 400.0 mg/kg/injection, schedule: Q04DX003 (ip), vehicle: saline with Tween-80): 100 % of control

SMILES: Cc1ccsc1C(=O)c1ccccc1
- T/C [3]: 99 % of control
- T/C [4]: 94 % of control
- T/C [5]: 96 % of control

SMILES: CCN(CCN(C)c1ccccc1)Cc1ccccc1
- T/C [6]: 105 % of control
- T/C [7]: 103 % of control
- T/C [8]: 105 % of control

SMILES: O=C(NN1C(=O)CS(=O)(=O)C1c1ccccc1F)c1ccncc1 (stereo not drawn)
- T/C (dose: 6.25 mg/kg/injection, schedule: Q01DX005 (ip), vehicle: saline with Tween-80): 102 % of control
- T/C (dose: 12.5 mg/kg/injection, schedule: Q01DX005 (ip), vehicle: saline with Tween-80): 98 % of control
- T/C [14]: 99 % of control
- T/C [15]: 97 % of control
- T/C [17]: 90 % of control
- T/C (dose: 200.0 mg/kg/injection, schedule: Q01DX005 (ip), vehicle: saline with Tween-80): 97 % of control

SMILES: O=C(CNN1C(=O)CSC1=Nc1cccc2ccccc12)c1cccc2c1Nc1ccccc1S2
- T/C [1]: 102 % of control
- T/C [2]: 102 % of control
- T/C [16]: 98 % of control

SMILES: O=[N+]([O-])C(Br)(Br)S(=O)(=O)c1ccccc1
- T/C [15]: 97 % of control
- T/C [17]: 106 % of control

SMILES: O=C(N/C(=C\c1nc2ccccc2s1)c1ccccc1O)c1ccccc1
- T/C (dose: 100.0 mg/kg/injection, schedule: Q04DX002 (ip), vehicle: saline with Tween-80): 104 % of control
- T/C (dose: 200.0 mg/kg/injection, schedule: Q04DX002 (ip), vehicle: saline with Tween-80): 99 % of control
- T/C (dose: 400.0 mg/kg/injection, schedule: Q04DX002 (ip), vehicle: saline with Tween-80): 103 % of control

SMILES: CC1OC(O[C@H]2CC[C@]3(C=O)[C@H]4CC[C@]5(C)[C@@H](C6=COC(=O)C6)CC[C@]5(O)[C@@H]4CC[C@]3(O)C2)C(O)C(O)C1OC1OC(CO)C(O)C(O)C1O (stereo partly drawn)
- T/C (dose: 25.0 mg/kg/injection, schedule: Q01DX005 (ip), vehicle: Klucel (hydroxypropylcellulose) (HPC)): 101 % of control
- T/C [3]: 98 % of control
